Measurements published in patent US20140288074A1, “FUNGICIDAL PYRAZOLES” (E I DU PONT DE NEMOURS AND COMPANY, priority 2013, published 2014).

Key:
Septoria nodorum = assay: Test C: preventive spray on wheat seedlings, Septoria glume blotch, visual disease rating; assay type: in vivo; details: for pest or weed control at 200 ppm / Test C rating (disease control): 200 ppm test suspension, Septoria nodorum inoculated the day after spraying
Method in brief: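 Compounds suspended in acetone/water (50/50) with 250 ppm surfactant, sprayed to run-off at 200 ppm (40 ppm where marked); seedlings inoculated next day, held 48 h saturated at 24 °C, then 9 days at 20 °C. Visual rating 0–100% disease control versus controls, triplicate averaged.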

[1] = tested on: Blumeria graminis f. sp. tritici; assay: Test G: preventive spray on wheat seedlings, wheat powdery mildew, visual disease rating;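 on all read-outs here: rated 8 days after spore dust inoculation at 20 °C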; assay type: in vivo; details: for pest or weed control at 200 ppm / Test G rating (disease control): 200 ppm test suspension, Blumeria graminis f. sp. tritici inoculated the day after spraying
Method in brief: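 Wheat seedlings sprayed to run-off with 200 ppm suspension (about 800 g/ha; asterisked values 40 ppm) in acetone/water with 250 ppm Trem 014. Inoculated next day with B. graminis spore dust and held at 20 °C for 8 days. Visual rating, 0–100 % disease control versus controls; triplicate, averaged.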

[2] = Parastagonospora nodorum, 264 h

Compound: Cc1nn(C)c(C(O)C(C)C)c1-c1ccc(F)cc1Cl (stereo not drawn) [Compound 2, 4-(2-chloro-4-fluorophenyl)-1,3-dimethyl-α-(1-methylethyl)-1H-pyrazole-5-methanol]
- pest or weed control at 200 ppm (Septoria nodorum; [2]): 0%
- pest or weed control at 200 ppm ([1]; 192 h): 97%

Compound: CCCNc1c(-c2ccc(Cl)cc2Cl)c(C)nn1C [Compound 3]
- Test C rating (disease control) (Septoria nodorum): 0%
- Test G rating (disease control) [1]: 0%

Compound: Cc1nn(C)c(NCC(C)C)c1-c1ccc(Cl)cc1Cl [Compound 4, 4-(2,4-dichlorophenyl)-1,3-dimethyl-N-(2-methylpropyl)-1H-pyrazol-5-amine]
- pest or weed control at 200 ppm (Septoria nodorum; [2]): 0%
- pest or weed control at 200 ppm ([1]; 192 h): 93%

Compound: CCCCNc1c(-c2ccc(Cl)cc2Cl)c(C)nn1C [Compound 5, N-butyl-4-(2,4-dichlorophenyl)-1,3-dimethyl-1H-pyrazol-5-amine]
- pest or weed control at 200 ppm (Septoria nodorum; [2]): 0%
- pest or weed control at 200 ppm ([1]; 192 h): 58%

Compound: Cc1nn(C)c(NC2CCCCC2)c1-c1ccc(F)cc1F [Compound 6, N-cyclohexyl-4-(2,4-difluorophenyl)-1,3-dimethyl-1H-pyrazol-5-amine]
- pest or weed control at 200 ppm (Septoria nodorum; [2]): 0%
- pest or weed control at 200 ppm ([1]; 192 h): 91%

Compound: CCC(C)C(O)c1c(-c2ccc(F)cc2Cl)c(C)nn1C (stereo not drawn) [Compound 8, 4-(2-chloro-4-fluorophenyl)-1,3-dimethyl-α-(1-methylpropyl)-1H-pyrazole-5-methanol]
- pest or weed control at 200 ppm (Septoria nodorum; [2]): 0%
- pest or weed control at 200 ppm ([1]; 192 h): 99%

Compound: Cc1nn(C)c(C(O)C(C)(C)CCC#N)c1-c1c(F)cccc1F (centres unmarked) [Compound 9]
- Test C rating (disease control) (Septoria nodorum): 0%
- Test G rating (disease control) [1]: 53%

Compound: Cc1nn(C)c(C(O)C2=CCCCC2)c1-c1c(F)cccc1F (centres unmarked) [Compound 10]
- Test C rating (disease control) (Septoria nodorum): 0%
- Test G rating (disease control) [1]: 85%

Compound: Cc1nn(C)c(C(O)CC(C)C)c1-c1c(F)cccc1F (centres unmarked) [Compound 11]
- Test C rating (disease control) (Septoria nodorum): 0%
- Test G rating (disease control) [1]: 99%

Compound: C=CCC(C)(C)C(O)c1c(-c2c(F)cccc2F)c(C)nn1C (centres unmarked) [Compound 12]
- Test C rating (disease control) (Septoria nodorum): 0%
- Test G rating (disease control) [1]: 99%

Compound: CCCCC(CC)C(O)c1c(-c2c(F)cccc2F)c(C)nn1C (centres unmarked) [Compound 13]
- Test C rating (disease control) (Septoria nodorum): 0%
- Test G rating (disease control) [1]: 96%

Compound: CCCC(O)c1c(-c2c(F)cccc2F)c(C)nn1C (centres unmarked) [Compound 14]
- Test C rating (disease control) (Septoria nodorum): 0%
- Test G rating (disease control) [1]: 99%

Compound: CCC(C)C(O)c1c(-c2c(F)cccc2F)c(C)nn1C (centres unmarked) [Compound 15]
- Test C rating (disease control) (Septoria nodorum): 0%
- Test G rating (disease control) [1]: 99%

Compound: CCC(C)C(O)c1c(-c2c(F)cccc2Cl)c(C)nn1C (stereo not drawn) [Compound 19, 4-(2-chloro-6-fluorophenyl)-1,3-dimethyl-α-(1-methylpropyl)-1H-pyrazole-5-methanol]
- pest or weed control at 40 ppm (Septoria nodorum; Parastagonospora nodorum, 264 h, 40 ppm test suspension (asterisk), Septoria nodorum): 0%
- pest or weed control at 40 ppm ([1]; 192 h, 40 ppm test suspension (asterisk), Blumeria graminis f. sp. tritici): 95%

Compound: Cc1nn(C)c(C(O)CC(C)C)c1-c1c(F)cccc1Cl (centres unmarked) [Compound 20]
- Test C rating (disease control) (Septoria nodorum): 0%
- Test G rating (disease control) [1]: 99%

Compound: CCCC(O)c1c(-c2c(F)cccc2Cl)c(C)nn1C (centres unmarked) [Compound 21]
- Test C rating (disease control) (Septoria nodorum): 0%
- Test G rating (disease control) [1]: 99%
